Experimental data published in patent US6649421B1, “Antibodies against phoshorylated VASP (vasodilator-stimulated phosphoprotein), hybridoma cells for their preparation, and their use” (Vasopharm Biotech GmbH, priority 1997, dated 2003).

System: VASP phosphorylation in rat thrombocytes
Assay: Western blot of VASP phosphorylation in rat thrombocytes
Assay type: cell-based
Conditions: 5 min incubation
Protocol: Rat thrombocytes (0.7×10^9 cell/ml) were incubated for 5 min with 100 μM sodium nitroprusside (SNP), with 10 μM prostaglandin E1(PgE1) or without either of these additions. The extracts of these rat thrombocytes were analyzed by Western blotting. […] Similar results are also obtained using mouse thrombocytes.

## CCCCC[C@H](O)/C=C/[C@H]1[C@H](O)CC(=O)[C@@H]1CCCCCCC(=O)O [PgE1, prostaglandin E1]
  Phosphorylation-dependent shift of VASP from 46 kDa to 50 kDa (serine 157 phosphorylation): also took place in rat thrombocytes
  Phosphorylation-dependent signal given by the 16C2 antibody (serine 239 phosphorylation): also took place in rat thrombocytes
